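Five concentrations, 48 hours, 96-well plates. TGI: total growth inhibition.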
Key:
Assay in all cases: NCI-60 cell line screen, 48 h
BT-549 breast = test system: BT-549 breast
HL-60(TB) leukemia = test system: HL-60(TB) leukemia
K-562 leukemia = test system: K-562 leukemia
LOX IMVI melanoma = test system: LOX IMVI melanoma
MDA-N = test system: MDA-N
OVCAR-3 ovarian = test system: OVCAR-3 ovarian
OVCAR-5 ovarian = test system: OVCAR-5 ovarian
OVCAR-8 ovarian = test system: OVCAR-8 ovarian
RXF 393 renal = test system: RXF 393 renal
SF-539 CNS = test system: SF-539 CNS
SW-620 colon = test system: SW-620 colon
UACC-257 melanoma = test system: UACC-257 melanoma
UACC-62 melanoma = test system: UACC-62 melanoma
A498 renal = test system: A498 renal

Row | SMILES | TGI (BT-549 breast) | TGI (HL-60(TB) leukemia) | TGI (K-562 leukemia) | TGI (LOX IMVI melanoma) | TGI (MDA-N) | TGI (OVCAR-3 ovarian) | TGI (OVCAR-5 ovarian) | TGI (OVCAR-8 ovarian) | TGI (RXF 393 renal) | TGI (SF-539 CNS) | TGI (SW-620 colon) | TGI (UACC-257 melanoma) | TGI (UACC-62 melanoma) | TGI (A498 renal)
1 | COC1CCON1C(=O)c1ccccc1 (stereo unspecified) | > 10 µM | > 10 µM | > 10 µM | > 10 µM | > 10 µM | > 10 µM | > 10 µM | > 10 µM | > 10 µM | > 10 µM | > 10 µM | > 10 µM |  | 
2 | CCOC(=O)C(NC(=O)c1ccccc1)(Nc1ccc(S(=O)(=O)Nc2ncccn2)cc1)C(F)(F)F (stereo unspecified) | > 100 µM | > 100 µM | > 100 µM | > 100 µM | > 100 µM | > 100 µM | > 100 µM | > 100 µM | > 100 µM | > 100 µM | > 100 µM | > 100 µM | > 100 µM | 
3 | CCC(C)C(N)C(=O)NC(CC(N)=O)C(=O)NC(CC(C)C)C(=O)NC(CCCCN)C(=O)NC(C)C(=O)NC(CC(C)C)C(=O)NC(C)C(=O)NC(C)C(=O)NC(CC(C)C)C(=O)NC(C)C(=O)NC(CCCCN)C(=O)NC(CCCCN)C(=O)NC(C(=O)NC(CC(C)C)C(N)=O)C(C)CC (stereo unspecified) |  | 7.23 µM | 36.3 µM | 35.3 µM |  | 22.6 µM | 28 µM | 34.3 µM | 21.7 µM | 11.3 µM | 37.4 µM | 19.1 µM | 13.8 µM | 32.5 µM
4 | COc1ccc(OC)c(NCC(=O)Nn2cnc3ccc(S(=O)(=O)Nc4cc(OC)ccc4OC)cc3c2=O)c1 | > 100 µM | 43.1 µM | > 100 µM | > 100 µM | > 100 µM | > 100 µM | > 100 µM | > 100 µM |  | > 100 µM | > 100 µM | > 100 µM | > 100 µM | 
5 | C1CSCCSCCCSC2CCCCC2SC1 (stereo unspecified) | > 100 µM | 95.3 µM | > 100 µM | > 100 µM | > 100 µM | > 100 µM | > 100 µM | > 100 µM |  | > 100 µM | > 100 µM | > 100 µM | > 100 µM | 
6 | CCOC(=O)CC(c1ccccc1)C(C)(C(=O)OCC)C(=O)OCC (stereo unspecified) | > 100 µM | > 100 µM | > 100 µM | > 100 µM |  |  | > 100 µM | > 100 µM | 60.9 µM | > 100 µM | > 100 µM | > 100 µM | > 100 µM | 
7 | CCOC(=O)Cn1c2ccccc2c(=O)c2cc(C)c(C)c(C#N)c21 |  | > 100 µM |  | > 100 µM |  | > 100 µM | > 100 µM | > 100 µM | > 100 µM | > 100 µM | > 100 µM | > 100 µM | > 100 µM | 
8 | CC(CCC[C@H](C)CO)[C@H]1[C@@H](O)C(O)C2[C@@H]3C[C@@H](O)C4(O)C[C@@H](O)CC[C@]4(C)C3CC[C@@]21C (stereo partly specified) |  | > 100 µM | > 100 µM | > 100 µM |  | > 100 µM |  | > 100 µM | > 100 µM | > 100 µM | > 100 µM | > 100 µM | > 100 µM | 
9 | Clc1cccc(-c2sc(-c3ccsc3)cc2Cc2ccsc2)c1 |  | > 10 µM | > 10 µM | > 10 µM | > 10 µM |  |  | > 10 µM | > 10 µM |  | > 10 µM | > 10 µM | > 10 µM | 
10 | CC(=O)OCC1OC(n2ccc(=O)[nH]c2=O)C(OC(C)=O)C(OC(C)=O)C1OC(C)=O (stereo unspecified) |  |  | > 100 µM | > 100 µM |  | > 100 µM | > 100 µM | > 100 µM | > 100 µM |  | > 100 µM | > 100 µM | > 100 µM | > 100 µM
11 | CCc1c2c(cc3c1CC1(C3)Cc3cc4c(c(C(=O)OC)c3C1)CCCC4)CCCC2 (stereo unspecified) |  | > 100 µM | > 100 µM | > 100 µM | > 100 µM | > 100 µM | > 100 µM | > 100 µM | > 100 µM | > 100 µM |  | > 100 µM | 35.1 µM | > 100 µM
12 | COc1ccc(C2=NN(c3ccccc3)C[N+](c3ccc(C)cc3)=N2)cc1 |  | > 100 µM | 53.9 µM | > 100 µM |  | 47.2 µM | 79.8 µM | > 100 µM | 57.9 µM |  | 64.4 µM | > 100 µM |  | > 100 µM
13 | COC(=O)c1cc(C(=O)OC)c(CC(=O)C(=O)NC2C3CC4CC(C3)CC2C4)nc1CC(=O)C(=O)NC1C2CC3CC(C2)CC1C3 (stereo unspecified) |  | > 100 µM | > 100 µM | > 100 µM |  | > 100 µM | > 100 µM | > 100 µM | > 100 µM | > 100 µM | > 100 µM | > 100 µM | > 100 µM | > 100 µM
14 | CC(=O)OC(CC1(C)C(C)CCC23COC(=O)C2=CCCC31)c1ccoc1 (stereo unspecified) |  |  | > 100 µM | 47.9 µM |  | 46.1 µM | 67.4 µM | 54.2 µM | 27.7 µM | 62.5 µM | 66.8 µM | 72.5 µM | 59.9 µM | > 100 µM
15 | COc1cc2c(c(OC)c1OC)-c1ccc(SC)c(=O)cc1C(CC(=O)Oc1cccc([N+](=O)[O-])c1)C2 (stereo unspecified) |  |  | > 100 µM | > 32.1 µM |  | 0.94 µM | > 100 µM | 10.4 µM | > 100 µM | 1.32 µM | > 100 µM | > 100 µM |  | 0.823 µM
16 | COc1ccc(/C=C2/CSCC3=C2NC(=S)NC3c2ccc(OC)c(OC)c2OC)c(OC)c1OC (stereo unspecified) |  | > 100 µM | > 100 µM | 58.3 µM |  | > 100 µM | 57.5 µM | > 100 µM | 52.9 µM | 49.5 µM | 91.6 µM | 67.7 µM | 45 µM | 39.1 µM
17 | Cc1cccc(Br)[n+]1[O-] | > 100 µM |  | > 100 µM | > 100 µM |  | > 100 µM | > 100 µM | > 100 µM | > 100 µM | > 100 µM | > 100 µM | > 100 µM | > 100 µM | 
18 | NCCSc1cc(O)c2c(c1N)C(=O)c1ccccc1C2=O |  | 66.8 µM | 69.1 µM |  |  | > 100 µM | > 100 µM | > 100 µM | 91.1 µM | > 100 µM | > 100 µM |  | > 100 µM | > 100 µM
19 | CCOC(=O)C(=O)C=P(c1ccccc1)(c1ccccc1)c1ccccc1 |  | > 100 µM | > 100 µM | > 100 µM |  | > 100 µM | > 100 µM | > 100 µM | > 100 µM | > 100 µM | > 100 µM | > 100 µM | > 100 µM | > 100 µM
